In US20030124636A1, “Individualization of therapy with antiarrhythmics” (McGill University, priority 2001, published 2003):
Like-named read-outs stand apart in the source and are kept apart here. Marks after values point to notes of the source that are not given here.

Columns and labels:
AAMU-Ab = assay: Competitive antigen ELISA, cross-reactivity of AAMU-Ab; format: binding, rabbit; conditions: 0 = absence of inhibition or inhibition no higher than 40% at highest concentration tested (5 × 10^−3 M)
Experimental: (§1) Buffers and water without additives are filtered through millipore filters and kept for 1 week. BSA, antibodies, Tween™ 20 and horse radish peroxidase conjugates are added to these buffers and water just prior to use. Urine samples are usually collected 4 hours after drinking a cup of coffee (instant or brewed with approximately 100 mg of caffeine per cup) and stored at −80° C. The urine samples are diluted 10 times with sodium phosphate buffer (620 mosm, pH 7.50) and are subsequently diluted with water to give concentrations of AAMU and 1X no higher than 3×10^−6 M in the ELISA. All the pipettings are done with an eight-channel pipette, except those of the antibody and sample solutions. Starting with the last well, 100 μL of a carbonate buffer (100 mM, pH 9.6) containing 2.5 μg mL^−1 antibodies are added to each well. After 90 min. at room temperature, the wells are washed three times with […] of TPB: isotonic sodium phosphate buffer (310 mosm, pH 7.50) containing 0.05% Tween™ 20.
(§2) After the initial wash, unoccupied sites are blocked by incubation for 90 min. at room temperature with 100 μL TBP containing 3% BSA. The wells are washed four times with 100 μL TPB. […] The microplate is gently shaken with an orbital shaker at room temperature for 3-4 hours. The wells are washed three times with 100 μL TPB containing 1% BSA and three times with water containing 0.05% Tween™20. To the washed plate is added 150 μL of a substrate buffer composed of citric acid (25 mM) and sodium phosphate dibasic buffer (50 mM, pH 5.0) containing 0.06% hydrogen peroxide and 0.04% o-phenylenediamine hydrochloride.
(§3) Buffers and water without additives were filtered through millipore filters and kept for 1 week. BSA, antibodies, Tween™20 and horse radish peroxidase conjugates were added to these buffers and water just prior to use. Urine samples were usually collected 4 hours after drinking a cup of coffee (instant or brewed with approximately 100 mg of caffeine per cup) and stored at −80° C. They were diluted 10 times with sodium phosphate buffer (620 mosm, pH 7.50) and were subsequently diluted with water to give concentrations of AAMU and 1X no higher than 3×10^−6 M in the ELISA. All the pipettings were done with an eight-channel pipette, except those of the antibody and sample solutions. Starting with the last well, 100 μL of a carbonate buffer (100 mM, pH 9.6) containing 2.5 μg mL^−1 antibodies was pipetted. After 90 min. at room temperature, the wells were washed three times with 100 μL of TPB: isotonic sodium phosphate buffer (310 mosm, pH 7.50) containing 0.05% Tween™ 20.
(§4) After the initial wash, unoccupied sites were blocked by incubation for 90 min. at room temperature with 100 μL TBP containing 3% BSA. The wells were washed four times with 100 μL TPB. […] The microplate was gently shaken with an orbital shaker at room temperature for 3-4 hours. The wells were washed three times with 100 μL with TPB containing 1% BSA and three times with water containing 0.05% Tween™ 20. To the washed plate was added 150 μL of a substrate buffer composed of citric acid (25 mM) and sodium phosphate dibasic buffer (50 mM, pH 5.0) containing 0.06% hydrogen peroxide and 0.04% o-phenylenediamine hydrochloride. After 20 min. at room temperature with shaking, the reaction was stopped with 50 μL of 2.5 N HCl.
(§5) The cross reactivities of AAMU-Ab and 1X-Ab were tested using a wide variety of caffeine metabolites and structural analogs (Table 2 below).

1X-Ab = assay: Competitive antigen ELISA, cross-reactivity of 1X-Ab; format: binding, rabbit; conditions: 0 = absence of inhibition or inhibition no higher than 40% at highest concentration tested (5 × 10^−3 M)
Experimental: as §1, §2, §3, §4, §5

[1] = cited from earlier work

Row | Compound | % Cross-Reaction AAMU-Ab (AAMU-Ab) | % Cross-Reaction 1X-Ab (1X-Ab) [%] | adverse reactions to dapsone ([1]; fast acetylators) [%] | adverse reactions to dapsone ([1]; slow acetylators) [%]
1 | Cn1c(=O)c2c(ncn2C)n(C)c1=O [1,3,7-Trimethyl Xanthine (Caffeine), 1,3,7-Trimethyl Xanthine] | 0% | 0 | – | –
2 | Cn1c(=O)c2[nH]cnc2n(C)c1=O [1,3-Dimethyl Xanthine (Theophylline), 1,3-Dimethyl Xanthine] | 0% | 0.2 | – | –
3 | Cn1c(=O)[nH]c2ncn(C)c2c1=O [1,7-Dimethyl Xanthine (Paraxanthine), 1,7-Dimethyl Xanthine] | 0% | 0.5 | – | –
4 | Cn1c(=O)[nH]c2[nH]c(=O)n(C)c2c1=O [1,7-Dimethyluric acid] | 0% | 0 | – | –
5 | Cn1c(=O)[nH]c2nc[nH]c2c1=O [1-Methyl Xanthine (1X), 1-Methyl Xanthine] | 0% | 100 | – | –
6 | Cn1c(=O)[nH]c2[nH]c(=O)[nH]c2c1=O [1-Methyluric acid] | 0% | 11 | – | –
7 | Cn1cnc2c1c(=O)[nH]c(=O)n2C [3,7-Dimethyl Xanthine (Theobromine), 3,7-Dimethyl Xanthine] | 0% | 0 | – | –
8 | Cn1c(=O)[nH]c(=O)c2[nH]cnc21 [3-Methyl Xanthine] | 0% | 0 | – | –
9 | CC(=O)Nc1c(N)n(C)c(=O)n(C)c1=O [5-Acetamino-6-amino-1,3-dimethyluracil] | 0% | 0 | – | –
10 | CC(=O)Nc1c(N)n(C)c(=O)[nH]c1=O [5-Acetamino-6-amino-1-methyluracil] | 100% | 0 | – | –
11 | CC(=O)Nc1c(N)[nH]c(=O)[nH]c1=O [5-Acetamino-6-amino-uracil] | 0.6% | 0 | – | –
12 | Cn1cnc2[nH]c(=O)[nH]c(=O)c21 [7-Methyl Xanthine] | 0% | 0 | – | –
13 | Cc1nc2[nH]c(=O)[nH]c(=O)c2[nH]1 [8-Methyl Xanthine] | 0% | 0 | – | –
14 | Nc1nc2nc[nH]c2c(=O)[nH]1 [Guanine] | 0% | 0 | – | –
15 | O=c1[nH]cnc2nc[nH]c12 [Hypoxanthine] | 0% | 0 | – | –
16 | O=c1cc[nH]c(=O)[nH]1 [Uracil] | 0% | 0 | – | –
17 | O=c1[nH]c(=O)c2[nH]c(=O)[nH]c2[nH]1 [Uric acid] | 0% | 0 | – | –
18 | O=c1[nH]c(=O)c2[nH]cnc2[nH]1 [Xanthine] | 0^a % | 0 | – | –
19 | Nc1ccc(S(=O)(=O)c2ccc(N)cc2)cc1 [dapsone] | – | – | 17 | 46
